Columns and labels:
Assay type in all cases: functional
HT-29 = experiment: Growth inhibition of human HT-29 cells measured after 72 hrs by Celltiter-Glo reagent based assay; details: HT-29, 72 h
PC-3 = experiment: Growth inhibition of human PC3 cells measured after 72 hrs by Celltiter-Glo reagent based assay; details: PC-3, 72 h
MDA-MB-231 = experiment: Growth inhibition of human MDA-MB-231 cells measured after 96 hrs by Celltiter-Glo reagent based assay; details: MDA-MB-231, 96 h

SMILES | CC50 (HT-29) | CC50 (PC-3) | CC50 (MDA-MB-231)
CSc1ccc(/C=C2/C(C)=C(CC(=O)NCCN(C)C)c3cc(F)ccc32)cc1 | 0.65 µM | 3.12 µM | 2.67 µM
COC(=O)[C@H](Cc1c[nH]cn1)NC(=O)C(C)C1=C(C)/C(=C/c2ccc(SC)cc2)c2ccc(F)cc21 (some centres undefined) | 6.62 µM | 14.4 µM | 12.7 µM
CC1=C(C(C)C(=O)N(C)CCN(C)C)c2cc(F)ccc2/C1=C\c1ccc([S+](C)[O-])cc1 (centres undefined) | 11.8 µM | 44.6 µM | > 50 µM
CC1=C(C(C)C(=O)NCCN2CCCCC2)c2cc(F)ccc2/C1=C\c1ccc([S+](C)[O-])cc1 (centres undefined) | 9.67 µM | 36.3 µM | 39.3 µM
CC1=C(C(C)C(=O)NCCN(C)C)c2cc(F)ccc2/C1=C\c1ccc([S+](C)[O-])cc1 (centres undefined) | 12.7 µM | > 50 µM | > 50 µM
CC1=C(C(C)C(=O)NCCN2CCCC2)c2cc(F)ccc2/C1=C\c1ccc([S+](C)[O-])cc1 (centres undefined) | 13.7 µM | 31.9 µM | 39.2 µM
CCN(CC)CCCNC(=O)C(C)C1=C(C)/C(=C/c2ccc([S+](C)[O-])cc2)c2ccc(F)cc21 (centres undefined) | 15.5 µM | > 50 µM | > 50 µM
CCNCCCN(CC)C(=O)C(C)C1=C(C)/C(=C/c2ccc([S+](C)[O-])cc2)c2ccc(F)cc21 (centres undefined) | 6.98 µM | 24.8 µM | 25.6 µM
COC(=O)[C@@H](Cc1c[nH]cn1)NC(=O)C(C)C1=C(C)/C(=C/c2ccc(SC)cc2)c2ccc(F)cc21 (some centres undefined) | 10.7 µM | 16.8 µM | 15 µM
CNCCCN(C)C(=O)C(C)C1=C(C)/C(=C/c2ccc(SC)cc2)c2ccc(F)cc21 (centres undefined) | 1.98 µM | 4.96 µM | 3.83 µM
CSc1ccc(/C=C2/C(C)=C(C(C)C(=O)N3CCN(CCCN(C)C)CC3)c3cc(F)ccc32)cc1 (centres undefined) | 1.5 µM | 4.14 µM | 3.06 µM
CCN1CCC[C@H]1CNC(=O)C(C)C1=C(C)/C(=C/c2ccc(SC)cc2)c2ccc(F)cc21 (some centres undefined) | 1.1 µM | 4.24 µM | 3.49 µM
CCNCCN(CC)C(=O)C(C)C1=C(C)/C(=C/c2ccc(SC)cc2)c2ccc(F)cc21 (centres undefined) | 1.3 µM | 3.26 µM | 2.51 µM
CNCCN(C)C(=O)C(C)C1=C(C)/C(=C/c2ccc([S+](C)[O-])cc2)c2ccc(F)cc21 (centres undefined) | 10.7 µM | 27.9 µM | > 50 µM
CNCCCN(C)C(=O)C(C)C1=C(C)/C(=C/c2ccc([S+](C)[O-])cc2)c2ccc(F)cc21 (centres undefined) | 10.5 µM | 33.7 µM | 36.8 µM
CSc1ccc(/C=C2/C(C)=C(C(C)C(=O)NCc3ccccc3)c3cc(F)ccc32)cc1 (centres undefined) | 22.9 µM | > 50 µM | > 50 µM
CSc1ccc(/C=C2/C(C)=C(C(C)C(=O)NCc3ccco3)c3cc(F)ccc32)cc1 (centres undefined) | 11.2 µM | 23.5 µM | 26.1 µM
CC1=C(C(C)C(=O)N2CCN(CCN(C)C)CC2)c2cc(F)ccc2/C1=C\c1ccc([S+](C)[O-])cc1 (centres undefined) | 38.4 µM | 50 µM | > 50 µM
CC1=C(C(C)C(=O)NCc2ccco2)c2cc(F)ccc2/C1=C\c1ccc([S+](C)[O-])cc1 (centres undefined) | > 50 µM | > 50 µM | > 50 µM
CC1=C(C(C)C(=O)NCCN2CCNCC2)c2cc(F)ccc2/C1=C\c1ccc([S+](C)[O-])cc1 (centres undefined) | > 50 µM | > 50 µM | > 50 µM
CSc1ccc(/C=C2/C(C)=C(C(C)C(=O)N(C)CCN(C)C)c3cc(F)ccc32)cc1 (centres undefined) | 1.43 µM | 5.55 µM | 3.66 µM
CC1=C(C(C)C(=O)NCCCN(C)C)c2cc(F)ccc2/C1=C\c1ccc([S+](C)[O-])cc1 (centres undefined) | 22.5 µM | > 50 µM | > 50 µM

SMILES | CC50 (HT-29) | CC50 (PC-3) | CC50 (MDA-MB-231)
CSc1ccc(/C=C2/C(C)=C(C(C)C(=O)NCCN3CCCCC3)c3cc(F)ccc32)cc1 (centres undefined) | 2.03 µM | 5.06 µM | 5.32 µM
CCN(CC)CCN(C)C(=O)C(C)C1=C(C)/C(=C/c2ccc([S+](C)[O-])cc2)c2ccc(F)cc21 (centres undefined) | 5.83 µM | 29.3 µM | > 50 µM
CCN(CCN(C)C)C(=O)C(C)C1=C(C)/C(=C/c2ccc([S+](C)[O-])cc2)c2ccc(F)cc21 (centres undefined) | 9.51 µM | 28.1 µM | 32 µM
CCN(CC)CCN(C)C(=O)C(C)C1=C(C)/C(=C/c2ccc(SC)cc2)c2ccc(F)cc21 (centres undefined) | 2.22 µM | 7.27 µM | 6.71 µM
CCN(CC)CCN(CC)C(=O)C(C)C1=C(C)/C(=C/c2ccc(SC)cc2)c2ccc(F)cc21 (centres undefined) | 2.31 µM | 6.59 µM | 5.98 µM
CC1=C(C(C)C(=O)N2CCN(c3ccncc3)CC2)c2cc(F)ccc2/C1=C\c1ccc([S+](C)[O-])cc1 (centres undefined) | 4.99 µM | 10.5 µM | 19.6 µM
CC1=C(C(C)C(=O)N2CCN(CCCN(C)C)CC2)c2cc(F)ccc2/C1=C\c1ccc([S+](C)[O-])cc1 (centres undefined) | 32 µM | > 50 µM | > 50 µM
COC(=O)[C@H](Cc1c[nH]cn1)NC(=O)C(C)C1=C(C)/C(=C/c2ccc([S+](C)[O-])cc2)c2ccc(F)cc21 (some centres undefined) | > 50 µM | > 50 µM | > 50 µM
CCN1CCC[C@H]1CNC(=O)C(C)C1=C(C)/C(=C/c2ccc([S+](C)[O-])cc2)c2ccc(F)cc21 (some centres undefined) | 9.35 µM | 41.5 µM | 24.9 µM
CC1=C(C(C)C(=O)N(C)CCCN(C)C)c2cc(F)ccc2/C1=C\c1ccc([S+](C)[O-])cc1 (centres undefined) | 16.6 µM | > 50 µM | > 50 µM
CCN(CC)CCN(CC)C(=O)C(C)C1=C(C)/C(=C/c2ccc([S+](C)[O-])cc2)c2ccc(F)cc21 (centres undefined) | 4.45 µM | 19.7 µM | 23.5 µM
CC1=C(C(C)C(=O)N(CCCNC(C)C)C(C)C)c2cc(F)ccc2/C1=C\c1ccc([S+](C)[O-])cc1 (centres undefined) | 7.13 µM | 15.7 µM | 23 µM
CSc1ccc(/C=C2/C(C)=C(C(C)C(=O)NCCCN(C)C)c3cc(F)ccc32)cc1 (centres undefined) | 2.58 µM | 7.24 µM | 6.42 µM
CCN(CC)CCNC(=O)C(C)C1=C(C)/C(=C/c2ccc([S+](C)[O-])cc2)c2ccc(F)cc21 (centres undefined) | 11.1 µM | 40 µM | 36.6 µM
CC1=C(C(C)C(=O)N(CCNC(C)C)C(C)C)c2cc(F)ccc2/C1=C\c1ccc([S+](C)[O-])cc1 (centres undefined) | 8.06 µM | 15.2 µM | 21.3 µM
CNCCN(C)C(=O)C(C)C1=C(C)/C(=C/c2ccc(SC)cc2)c2ccc(F)cc21 (centres undefined) | 1.31 µM | 4.06 µM | 3.21 µM
CSc1ccc(/C=C2/C(C)=C(C(C)C(=O)N3CCC(N4CCCCC4)CC3)c3cc(F)ccc32)cc1 (centres undefined) | 1.89 µM | 4.36 µM | 4.3 µM
CC1=C(C(C)C(=O)N2CCC(N3CCCCC3)CC2)c2cc(F)ccc2/C1=C\c1ccc([S+](C)[O-])cc1 (centres undefined) | 48.4 µM | > 50 µM | > 50 µM
CC1=C(C(C)C(=O)NCc2ccccc2)c2cc(F)ccc2/C1=C\c1ccc([S+](C)[O-])cc1 (centres undefined) | 17.2 µM | 15.7 µM | 26 µM
CCNCCCN(CC)C(=O)C(C)C1=C(C)/C(=C/c2ccc(SC)cc2)c2ccc(F)cc21 (centres undefined) | 2.01 µM | 4.6 µM | 3.97 µM
CCNCCN(CC)C(=O)C(C)C1=C(C)/C(=C/c2ccc([S+](C)[O-])cc2)c2ccc(F)cc21 (centres undefined) | 9.99 µM | 26.3 µM | 27.9 µM
